Laboratory results from US9522886B2, “Pyridine derivatives” (Hoffmann-La Roche Inc., priority 2012, dated 2016).
Like-named read-outs stand apart in the source and are kept apart here.

How the values were obtained:
human CB2 receptors = human CB2 receptors (Homo sapiens (Human), UniProt P34972); assay: cAMP assay, CHO cells expressing human CB2 receptors; type: cell-based; conditions: functional cAMP assay, CHO cells expressing human CB2; read-out: human CB2 EC50
Protocol: (§1) CHO cells expressing human CB1 or CB2 receptors are seeded 17-24 hours prior to the experiment 50.000 cells per well in a black 96 well plate with flat clear bottom (Corning Costar #3904) in DMEM (Invitrogen No. 31331), 1×HT supplement, with 10% fetal calf serum and incubated at 5% CO2 and 37° C. in a humidified incubator. The growth medium was exchanged with Krebs Ringer Bicarbonate buffer with 1 mM IBMX and incubated at 30° C. for 30 min. Compounds were added to a final assay volume of 100 μl and incubated for 30 min at 30° C. Using the cAMP-Nano-TRF detection kit the assay (Roche Diagnostics) was stopped by the addition of 50 μl lysis reagent (Tris, NaCl, 1.5% Triton X100, 2.5% NP40, 10% NaN3) and 50 μl detection solutions (20 μM mAb Alexa700-cAMP 1:1, and 48 μM Ruthenium-2-AHA-cAMP) and shaken for 2 h at room temperature. The time-resolved energy transfer is measured by a TRF reader (Evotec Technologies GmbH), equipped with a ND:YAG laser as excitation source. The plate is measured twice with the excitation at 355 nm and at the emission with a delay of 100 ns and a gate of 100 ns, total exposure time 10 s at 730 (bandwidth 30 nm) or 645 nm (bandwidth 75 nm), respectively.
(§2) EC50 values were determined using Activity Base analysis (ID Business Solution, Limited).

human CB1 receptors = human CB1 receptors (Homo sapiens (Human), UniProt P21554); assay: cAMP assay, CHO cells expressing human CB1 receptors; type: cell-based
Protocol: as §1, §2

[1] = functional cAMP assay, CHO cells expressing human CB1, read-out: human CB1 EC50

Sequence of human CB1 receptors (P21554 whole entry): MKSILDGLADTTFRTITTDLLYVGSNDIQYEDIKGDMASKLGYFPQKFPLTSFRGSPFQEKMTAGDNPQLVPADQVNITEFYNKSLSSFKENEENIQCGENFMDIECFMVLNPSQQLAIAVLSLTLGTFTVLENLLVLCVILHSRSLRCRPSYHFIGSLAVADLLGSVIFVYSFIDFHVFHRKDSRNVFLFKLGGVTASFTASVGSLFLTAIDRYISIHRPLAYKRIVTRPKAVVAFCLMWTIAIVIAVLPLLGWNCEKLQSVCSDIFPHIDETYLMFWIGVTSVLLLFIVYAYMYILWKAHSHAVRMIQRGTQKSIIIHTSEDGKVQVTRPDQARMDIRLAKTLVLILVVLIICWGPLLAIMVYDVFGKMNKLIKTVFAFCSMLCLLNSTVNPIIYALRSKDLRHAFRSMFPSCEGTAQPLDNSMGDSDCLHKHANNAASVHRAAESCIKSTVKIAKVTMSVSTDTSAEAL
Sequence of human CB2 receptors (P34972 whole entry): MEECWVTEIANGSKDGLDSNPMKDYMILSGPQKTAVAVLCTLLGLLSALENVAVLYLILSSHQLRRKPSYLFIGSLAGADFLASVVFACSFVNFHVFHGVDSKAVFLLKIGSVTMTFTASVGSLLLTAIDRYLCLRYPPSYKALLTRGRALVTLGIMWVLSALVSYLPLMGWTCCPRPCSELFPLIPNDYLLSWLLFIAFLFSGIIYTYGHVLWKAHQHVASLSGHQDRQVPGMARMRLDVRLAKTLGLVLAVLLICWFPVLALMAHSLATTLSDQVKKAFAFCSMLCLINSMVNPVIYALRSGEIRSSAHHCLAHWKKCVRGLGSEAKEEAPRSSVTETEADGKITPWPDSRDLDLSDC

Compound	EC50 (human CB2 receptors)	EC50 (human CB1 receptors; [1])	EC50 (human CB1 receptors)
CC(=O)N1CCC(CC(N)=O)(NC(=O)c2ccc(C3CC3)c(Cc3ccc(F)cc3)n2)CC1 [Example 72, N-[1-Acetyl-4-(2-amino-2-oxoethyl)piperidin-4-yl]-5-cyclopropyl-6-[(4-fluorophenyl)methyl]pyridine-2-carboxamide]	5 nM	> 10000 nM	
NC(=O)CC(NC(=O)c1ccc(C2CC2)c(OCC2CC2)n1)C(F)(F)F (single isomer, unassigned; (+)) [Example 32, (+)-5-Cyclopropyl-6-cyclopropylmethoxy-pyridine-2-carboxylic acid (1-carbamoylmethyl-2,2,2-trifluoro-ethyl)-amide]	137 nM	> 10000 nM	
CCOC(=O)CC1(NC(=O)c2ccc(C3CC3)c(OCC3CC3)n2)COC1 [Example 1, {3-[(5-Cyclopropyl-6-cyclopropylmethoxy-pyridine-2-carbonyl)-amino]-oxetan-3-yl}-acetic acid ethyl ester]	53.7 nM	> 10000 nM	
CC(C)[C@H](CC(N)=O)NC(=O)c1ccc(C2CC2)c(OCC2CC2)n1 [Example 14, 5-Cyclopropyl-6-cyclopropylmethoxy-pyridine-2-carboxylic acid ((S)-1-carbamoylmethyl-2-methyl-propyl)-amide]	1.5 nM		
CC(C)[S+]([O-])c1nc(C(=O)NC2(CC(N)=O)COC2)ccc1Br (centres unmarked) [Example 44, 5-Bromo-6-(propane-2-sulfinyl)-pyridine-2-carboxylic acid (3-carbamoylmethyl-oxetan-3-yl)-amide]	413 nM	> 10000 nM	
CC(Oc1nc(C(=O)NC2(CC(N)=O)COC2)ccc1C1CC1)C(F)(F)F (centres unmarked) [Example 33, 5-Cyclopropyl-6-(2,2,2-trifluoro-1-methyl-ethoxy)-pyridine-2-carboxylic acid (3-carbamoylmethyl-oxetan-3-yl)-amide]	145 nM	> 10000 nM	
NC(=O)CC(NC(=O)c1ccc(C2CC2)c(OCC2CC2)n1)C1CC1 (single isomer, unassigned; (-)) [Example 27, (−)-5-Cyclopropyl-6-cyclopropylmethoxy-pyridine-2-carboxylic acid (2-carbamoyl-1-cyclopropyl-ethyl)-amide]	1.4 nM	> 10000 nM	
NC(=O)CC1(NC(=O)c2ccc(C3CC3)c(Cc3ccc(F)cc3)n2)CN(C(=O)OCc2ccccc2)C1 [Example 74, Benzyl 3-(2-amino-2-oxoethyl)-3-[[5-cyclopropyl-6-[(4-fluorophenyl)methyl]pyridine-2-carbonyl]amino]azetidine-1-carboxylate]	39 nM	> 10000 nM	
NC(=O)CC1(NC(=O)c2ccc(N3CC(F)(F)C3)c(OCC3CC3)n2)CCSCC1 [Example 62, 6-Cyclopropylmethoxy-5-(3,3-difluoro-azetidin-1-yl)-pyridine-2-carboxylic acid (4-carbamoylmethyl-tetrahydro-thiopyran-4-yl)-amide]	2.5 nM	> 10000 nM	
NC(=O)CC1(NC(=O)c2ccc(N3CC(F)(F)C3)c(OCC3CC3)n2)COC1 [Example 26, 6-Cyclopropylmethoxy-5-(3,3-difluoro-azetidin-1-yl)-pyridine-2-carboxylic acid (3-carbamoylmethyl-oxetan-3-yl)-amide]	5.65 nM	> 10000 nM	
NC(=O)CC1(NC(=O)c2ccc(C3CC3)c(OCC3CC3)n2)COC1 [Example 23, 5-Cyclopropyl-6-cyclopropylmethoxy-pyridine-2-carboxylic acid (3-carbamoylmethyl-oxetan-3-yl)-amide]	1.4 nM	> 10000 nM	
NC(=O)CC1(NC(=O)c2ccc(N3CC(F)(F)C3)c(OCC3CC3)n2)CCS(=O)(=O)CC1 [Example 63, N-[4-(2-Amino-2-oxoethyl)-1,1-dioxothian-4-yl]-6-(cyclopropylmethoxy)-5-(3,3-difluoroazetidin-1-yl)pyridine-2-carboxamide]	55.5 nM	> 10000 nM	
CN(C)C(=O)CC1(NC(=O)c2ccc(C(F)(F)F)c(OCC3CC3)n2)COC1 [Example 42, 6-Cyclopropylmethoxy-5-trifluoromethyl-pyridine-2-carboxylic acid (3-dimethylcarbamoylmethyl-oxetan-3-yl)-amide]	967 nM	> 10000 nM	
NC(=O)CC1(NC(=O)c2ccc(N3CC(F)(F)C3)c(OCC3CC3)n2)CCOC1 (centres unmarked) [Example 82, N-[3-(2-Amino-2-oxoethyl)oxolan-3-yl]-6-(cyclopropylmethoxy)-5-(3,3-difluoroazetidin-1-yl)pyridine-2-carboxamide]	1.5 nM	> 10000 nM	
NC(=O)CC(NC(=O)c1ccc(C2CC2)c(OCC2CC2)n1)C1CCOCC1 (single isomer, unassigned; (-)) [Example 34, (−)-5-Cyclopropyl-6-cyclopropylmethoxy-pyridine-2-carboxylic acid [2-carbamoyl-1-(tetrahydro-pyran-4-yl)-ethyl]-amide]	2.2 nM	> 10000 nM	
NC(=O)CC(NC(=O)c1ccc(C2CC2)c(OCC2CC2)n1)C1CCCCC1 (single isomer, unassigned; (+)) [Example 18, (+)-5-Cyclopropyl-6-cyclopropylmethoxy-pyridine-2-carboxylic acid (2-carbamoyl-1-cyclohexyl-ethyl)-amide]	1.5 nM	> 10000 nM	
NC(=O)C[C@@H](NC(=O)c1ccc(C2CC2)c(OCC2CC2)n1)c1cccc(Cl)c1 [Example 43, 5-Cyclopropyl-6-cyclopropylmethoxy-pyridine-2-carboxylic acid [(R)-2-carbamoyl-1-(3-chloro-phenyl)-ethyl]-amide]	105 nM	> 10000 nM	
NC(=O)[C@H]1CCCC[C@@H]1NC(=O)c1ccc(C2CC2)c(OCC2CC2)n1 (stereo in doubt) [Example 16, (−)-trans-5-Cyclopropyl-6-cyclopropylmethoxy-pyridine-2-carboxylic acid (2-carbamoyl-cyclohexyl)-amide]		172 nM	
NC(=O)CC(NC(=O)c1ccc(N2CC(F)(F)C2)c(OCC2CC2)n1)C1CCOCC1 (single isomer, unassigned; (-)) [Example 58, (−)-6-Cyclopropylmethoxy-5-(3,3-difluoro-azetidin-1-yl)-pyridine-2-carboxylic acid [2-carbamoyl-1-(tetrahydro-pyran-4-yl)-ethyl]-amide]		> 10000 nM	
CCCCC(CC(N)=O)NC(=O)c1ccc(C2CC2)c(OCC2CC2)n1 (single isomer, unassigned; (-)) [Example 9, (−)-5-Cyclopropyl-6-cyclopropylmethoxy-pyridine-2-carboxylic acid (1-carbamoylmethyl-pentyl)-amide]	2.1 nM		
NC(=O)[C@@H]1CCCC[C@@H]1NC(=O)c1ccc(C2CC2)c(OCC2CC2)n1 (stereo in doubt) [Example 15, (+)-cis-5-Cyclopropyl-6-cyclopropylmethoxy-pyridine-2-carboxylic acid (2-carbamoyl-cyclohexyl)-amide]			> 10000 nM
NC(=O)[C@@H]1CCCC[C@@H]1NC(=O)c1ccc(C2CC2)c(OCC2CC2)n1 (relative stereo) [Example 12, 5-Cyclopropyl-6-cyclopropylmethoxy-pyridine-2-carboxylic acid (rel-(1S,2R)-2-carbamoyl-cyclohexyl)-amide]			> 10000 nM
NC(=O)CC(NC(=O)c1ccc(N2CC(F)(F)C2)c(OCC2CC2)n1)C1CCOCC1 (single isomer, unassigned; (+)) [Example 59, (+)-6-Cyclopropylmethoxy-5-(3,3-difluoro-azetidin-1-yl)-pyridine-2-carboxylic acid [2-carbamoyl-1-(tetrahydro-pyran-4-yl)-ethyl]-amide]		> 10000 nM	
CN1CC(NC(=O)c2ccc(N3CC(F)(F)C3)c(OCC3CC3)n2)CC1=O (centres unmarked) [Example 3, 6-Cyclopropylmethoxy-5-(3,3-difluoro-azetidin-1-yl)-pyridine-2-carboxylic acid (1-methyl-5-oxo-pyrrolidin-3-yl)-amide]		> 10000 nM	
CCCCC(CC(N)=O)NC(=O)c1ccc(C2CC2)c(OCC2CC2)n1 (single isomer, unassigned; (+)) [Example 10, (+)-5-Cyclopropyl-6-cyclopropylmethoxy-pyridine-2-carboxylic acid (1-carbamoylmethyl-pentyl)-amide]	0.3 nM		
NC(=O)CC1(NC(=O)c2ccc(N3CC(F)(F)C3)c(OCC3CC3)n2)CSC1 [Example 91, N-[3-(2-Amino-2-oxoethyl)thietan-3-yl]-6-(cyclopropylmethoxy)-5-(3,3-difluoroazetidin-1-yl)pyridine-2-carboxamide]		> 10000 nM	
NC(=O)CC(NC(=O)c1ccc(N2CC(F)(F)C2)c(OCC2CC2)n1)C1CCOCC1 (centres unmarked) [Example 53, 6-Cyclopropylmethoxy-5-(3,3-difluoro-azetidin-1-yl)-pyridine-2-carboxylic acid [2-carbamoyl-1-(tetrahydro-pyran-4-yl)-ethyl]-amide]		> 10000 nM	
CC(C)[C@@H](CC(N)=O)NC(=O)c1ccc(C2CC2)c(OCC2CC2)n1 [Example 13, 5-Cyclopropyl-6-cyclopropylmethoxy-pyridine-2-carboxylic acid ((R)-1-carbamoylmethyl-2-methyl-propyl)-amide]	5 nM		
